Laboratory results published in PubChem BioAssay (NCI).
Where “and” joins values, the source holds several entries; their conditions need not be identical. Identical values can stand only once.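 Five concentrations, 48 hours, 96-well plates. Abbreviation: GI50, concentration required for 50% inhibition of growth. Definition used: TGI = concentration required for complete inhibition of growth.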

How the values were obtained:
Test in all cases: NCI-60 cell line screen, 48 h
[1] = test system: HCT-15 colon
[2] = test system: K-562 leukemia
[3] = test system: OVCAR-5 ovarian
[4] = test system: NCI-H23 lung
[5] = test system: OVCAR-4 ovarian
[6] = test system: KM12 colon
[7] = test system: DMS 273 small cell lung
[8] = test system: RXF-631 renal
[9] = test system: SF-295 CNS
[10] = test system: SNB-19 CNS
[11] = test system: EKVX NSCLC
[12] = test system: COLO 205 colon
[13] = test system: OVCAR-3 ovarian
[14] = test system: MALME-3M melanoma
[15] = test system: SK-MEL-28 melanoma
[16] = test system: U251 CNS
[17] = test system: HCC-2998 colon
[18] = test system: SF-268 CNS
[19] = test system: IGROV1 ovarian
[20] = test system: ACHN renal
[21] = test system: UACC-257 melanoma
[22] = test system: SNB-78 CNS
[23] = test system: KM20L2 colon
[24] = test system: SF-539 CNS
[25] = test system: SR leukemia
[26] = test system: HT29 colon
[27] = test system: RXF 393 renal
[28] = test system: HCT-116 colon
[29] = test system: HL-60(TB) leukemia
[30] = test system: SW-620 colon
[31] = test system: A549 NSCLC
[32] = test system: NCI-H226 lung
[33] = test system: LXFL 529 NSCLC
[34] = test system: DLD-1 colon
[35] = test system: UO-31 renal
[36] = test system: 786-0 renal
[37] = test system: CAKI-1 renal
[38] = test system: DMS 114 small cell lung
[39] = test system: CCRF-CEM leukemia
[40] = test system: M14 melanoma
[41] = test system: SNB-75 CNS
[42] = test system: HOP-92 NSCLC
[43] = test system: NCI-H460 lung
[44] = test system: A498 renal
[45] = test system: XF 498 CNS
[46] = test system: HOP-62 NSCLC
[47] = test system: LOX IMVI melanoma
[48] = test system: NCI-H522 lung
[49] = test system: TK-10 renal
[50] = test system: SN12C renal
[51] = test system: OVCAR-8 ovarian
[52] = test system: HOP-18 NSCLC
[53] = test system: M19-MEL melanoma
[54] = test system: SK-MEL-5 melanoma
[55] = test system: UACC-62 melanoma
[56] = test system: HS 578T breast
[57] = test system: NCI/ADR-RES ovarian
[58] = test system: SK-MEL-2 melanoma
[59] = test system: MOLT-4 leukemia
[60] = test system: RPMI-8226 leukemia
[61] = test system: MDA-MB-231 breast
[62] = test system: DU-145 prostate
[63] = test system: SK-OV-3 ovarian

C/C(=N/NC(=O)CC(=O)N(C(=O)c1ccccc1Cl)c1ccc(C)cc1)c1cc2ccccc2oc1=O
TGI [1]: > 100 µM | TGI [2]: > 100 µM | TGI [3]: > 100 µM | TGI [4]: > 100 µM | TGI [5]: > 100 µM | TGI [6]: > 100 µM | TGI [7]: > 100 µM | TGI [8]: > 100 µM | TGI [9]: > 100 µM | TGI [10]: > 100 µM | TGI [11]: > 100 µM | TGI [12]: > 100 µM | TGI [13]: > 100 µM | TGI [14]: > 100 µM | TGI [15]: > 100 µM | TGI [16]: > 100 µM | TGI [17]: > 100 µM | TGI [18]: > 100 µM | TGI [19]: > 100 µM | TGI [20]: > 100 µM | TGI [21]: > 100 µM | TGI [22]: > 100 µM | TGI [23]: > 100 µM | TGI [24]: > 100 µM | TGI [25]: > 100 µM | TGI [26]: > 100 µM | TGI [27]: > 100 µM | TGI [28]: > 100 µM | TGI [29]: > 100 µM | TGI [30]: > 100 µM | TGI [31]: > 100 µM | TGI [32]: > 100 µM | TGI [33]: > 100 µM | TGI [34]: > 100 µM | TGI [35]: > 100 µM | TGI [36]: > 100 µM | TGI [37]: > 100 µM | TGI [38]: > 100 µM | TGI [39]: > 100 µM | TGI [40]: > 100 µM | TGI [41]: > 100 µM | TGI [42]: > 100 µM | TGI [43]: > 100 µM | TGI [44]: > 100 µM | TGI [45]: > 100 µM | TGI [46]: > 100 µM | TGI [47]: > 100 µM | TGI [48]: > 100 µM | TGI [49]: > 100 µM | TGI [50]: > 100 µM | TGI [51]: > 100 µM | TGI [52]: > 100 µM | TGI [53]: > 100 µM | TGI [54]: > 100 µM | TGI [55]: > 100 µM

CC(C)(C)CC(C)(C)c1ccc(OCCOCC[N+](C)(C)Cc2ccccc2)cc1
GI50 [1]: 16.6 µM | TGI [1]: 63.6 µM and 51.3 µM | TGI [2]: 15.7 µM | GI50 [3]: 1.7 µM | TGI [3]: 3.25 µM and 19.2 µM | TGI [4]: 6.01 µM | TGI [5]: 9.38 µM | TGI [7]: 2.57 µM | TGI [8]: 34.2 µM | TGI [9]: 28.4 µM | TGI [10]: 11.9 µM | GI50 [56]: 1.61 µM | TGI [56]: 4.81 µM | GI50 [57]: 16.2 µM | TGI [57]: 38.8 µM | TGI [11]: 16.9 µM | TGI [12]: 2.91 µM | TGI [13]: 6.8 µM | TGI [14]: 3.64 µM | TGI [15]: 3.68 µM | TGI [16]: 4.44 µM | TGI [58]: 9.71 µM | TGI [59]: 6.05 µM | TGI [17]: 4.05 µM | TGI [18]: 5.92 µM | GI50 [20]: 6.95 µM | TGI [20]: 32.9 µM and 26.7 µM | TGI [21]: 3.03 µM | TGI [22]: 4.26 µM | TGI [23]: 18.8 µM | GI50 [24]: 1.69 µM and 2.88 µM | TGI [24]: 3.41 µM and 9.48 µM | GI50 [25]: 1.75 µM | GI50 [26]: 1.14 µM | TGI [26]: 2.49 µM and 3.3 µM | TGI [27]: 10.3 µM | GI50 [28]: 1.38 µM | TGI [28]: 2.69 µM and 3.55 µM | TGI [29]: 6.31 µM | TGI [30]: 21 µM | TGI [31]: 32.8 µM | TGI [32]: 15.7 µM | TGI [60]: 3.83 µM | TGI [34]: 20.3 µM | GI50 [35]: 12.4 µM | TGI [35]: 45.9 µM and 43 µM | TGI [36]: 24.4 µM | GI50 [37]: 15.1 µM | TGI [37]: 38.2 µM and 30.8 µM | TGI [38]: 4.02 µM | TGI [39]: 6.36 µM | TGI [40]: 6.11 µM | GI50 [41]: 0.962 µM | TGI [41]: 2.34 µM and 5.55 µM | GI50 [42]: 0.94 µM | TGI [42]: 2.27 µM and 4.76 µM | GI50 [43]: 1.58 µM | TGI [43]: 3.43 µM and 11.7 µM | GI50 [44]: 1.54 µM | GI50 [61]: 1.34 µM | TGI [61]: 2.82 µM | GI50 [62]: 1.77 µM | TGI [62]: 3.36 µM | TGI [46]: 33.5 µM | TGI [48]: 6.42 µM | TGI [49]: 17.3 µM | TGI [50]: 12.7 µM | GI50 [63]: 1.46 µM | TGI [63]: 2.94 µM and 25.7 µM | TGI [51]: 12.8 µM | TGI [52]: 7.32 µM | GI50 [55]: 0.678 µM | TGI [55]: 2.09 µM and 2.67 µM
